Format in all cases: functional
The test system of experiment [1] is Fusarium oxysporum. The experiment can be described thus: Growth inhibition of Fusarium oxysporum at 300 uM after 48 hr by microtiter assay. Particulars: read-out: GI.
Experiment [2] has as its system Verticillium dahliae. The experiment can be described thus: Growth inhibition of Verticillium dahliae at 10 ug/ml. The settings on record: read-out: GI.
The test system of experiment [3] is Xanthomonas campestris pv. oryzae. The experiment in a line: Antibacterial activity against Xanthomonas campestris pv. oryzae.
Experiment [4] concerns Fusarium oxysporum. The experiment can be described thus: Growth inhibition of Fusarium oxysporum at 10 ug/ml. Particulars: read-out: GI.
Experiment [5] has as its system Rhizoctonia solani. The experiment in a line: Growth inhibition of Rhizoctonia solani at 10 ug/ml. Particulars: read-out: GI.
The subject of experiment [6] is Agrobacterium tumefaciens. The experiment in a line: Antibacterial activity against Agrobacterium tumefaciens.
Experiment [7] concerns Bipolaris oryzae. The experiment in a line: Growth inhibition of Bipolaris oryzae at 10 ug/ml. The settings on record: read-out: GI.
Experiment [8] concerns Clavibacter michiganensis. The experiment can be described thus: Antibacterial activity against Clavibacter michiganensis.
The test system of experiment [9] is Pyricularia oryzae. The experiment can be described thus: Growth inhibition of Magnaporthe oryzae at 10 ug/ml. The settings on record: read-out: GI.
Experiment [10] concerns Globisporangium ultimum. The experiment in a line: Growth inhibition of Pythium ultimum at 10 ug/ml. Particulars: read-out: GI.
Experiment [11] deals with Ralstonia solanacearum. The experiment in a line: Antibacterial activity against Ralstonia solanacearum.
For experiment [12], the system named is Pectobacterium carotovorum. The experiment can be described thus: Antibacterial activity against Pectobacterium carotovorum.
Experiment [13] concerns Gaeumannomyces graminis. The experiment in a line: Growth inhibition of Gaeumannomyces graminis at 10 ug/ml. The settings on record: read-out: GI.
Experiment [14] relates to Phomopsis obscurans. The experiment in a line: Growth inhibition of Phomopsis obscurans at 30 uM after 48 hr by microtiter assay. Particulars: Paraphomopsis obscurans, read-out: GI.
For experiment [15], the system named is Plasmopara viticola. The experiment in a line: Growth inhibition of Plasmopara viticola at 30 uM after 48 hr by microtiter assay. The settings on record: read-out: GI.
In experiment [16] the test system is Colletotrichum gloeosporioides. The experiment in a line: Growth inhibition of Colletotrichum gloeosporioides at 100 uM after 48 hr by microtiter assay. The settings on record: read-out: GI.
The test system of experiment [17] is Colletotrichum acutatum. The experiment can be described thus: Growth inhibition of Colletotrichum acutatum at 300 uM after 48 hr by microtiter assay. Particulars: read-out: GI.
The test system of experiment [18] is Colletotrichum fragariae. The experiment can be described thus: Growth inhibition of Colletotrichum fragariae at 300 uM after 48 hr by microtiter assay. The settings on record: read-out: GI.
For experiment [19], the system named is Phomopsis obscurans. The experiment can be described thus: Growth inhibition of Phomopsis obscurans at 100 uM after 48 hr by microtiter assay. Particulars: Paraphomopsis obscurans, read-out: GI.

Experimental findings from ChEMBL document CHEMBL3044533, “Alkyl, aryl, alkylarylquinoline, and related alkaloids” (2007) are described below.

Each structure is given as a SMILES string. In brackets after ≈: the same amount, converted by molar mass.

Turning to `O=C1C2CC=CCC2C(=O)N1SC(Cl)(Cl)Cl` (stereo unspecified) [CAPTAN], the inhibition of growth at 300 µM in experiment [1] was 100%.

`CCCCCC/C=C/Cc1[nH]c2ccccc2c(=O)c1C`: the inhibition of growth at 10 µg/mL in [2] came out at 74.9%; in [4] it was 41.1%; in [5], 58.1%; in experiment [7], 68%; in [9], 49.9%; in experiment [10], 0%. Further, the inhibition of growth at 10 µg/mL in [13] turned out to be 54.7%. The MIC is more than 20 µg/mL in experiment [3]; more than 20 µg/mL in experiment [6]; 10 µg/mL (≈ 35.3 µM) in experiment [8]; more than 20 µg/mL in experiment [11]; more than 20 µg/mL in experiment [12].

With `Cn1c(CCCCCCc2ccc3c(c2)OCO3)cc(=O)c2ccccc21`, the inhibition of growth at 30 µM in [14] and in [15] was 100% each time. In addition, the inhibition of growth at 100 µM in experiment [16] turned out to be 67.7%. Also, the inhibition of growth at 300 µM in experiment [17] and in [18] was 57% in each case.

Regarding `CCCCCCCCCc1cc(=O)c2ccccc2[nH]1`, the results for the inhibition of growth at 300 µM in experiment [1] and in experiment [17] were 37% and 50%, respectively.

Take `CCCC/C=C/Cc1[nH]c2ccccc2c(=O)c1C`: the inhibition of growth at 10 µg/mL in experiment [2] was 82.8%; in experiment [4], 34.4%; in experiment [5], 50.9%; in experiment [7], 63.9%; in [9], 70.8%; in experiment [10], 37.7%. Further, the inhibition of growth at 10 µg/mL in experiment [13] was determined as 17.1%. The MIC is 50 µg/mL (≈ 196 µM) in [3]; more than 50 µg/mL in experiment [6]; 10 µg/mL (≈ 39.2 µM) in [8]; more than 50 µg/mL in experiment [11]; more than 50 µg/mL in experiment [12].

With `CCCCNC(=O)n1c(NC(=O)OC)nc2ccccc21` [BENOMYL], the inhibition of growth at 100 µM in experiment [19] amounted to 100%. Moreover, the inhibition of growth at 300 µM in experiment [1] was 77%; in experiment [17], 33%; in experiment [18], 76%.
